# Results reported in US9458217B2, “Methods of managing graft versus host disease” (EMORY UNIVERSITY, priority 2013, dated 2016).
# “Also recorded” adds a separate entry of the source. Where no end group is shown, it is not given here.
# Experiments:
# [1] = tested on: CD11c+ cells; assay: Cell viability / direct cytotoxicity on drug exposure in vitro; conditions: at the doses that inhibit trogocytosis (FIG. 3)
# [2] = tested on: cross-dressed CD11c+ APC; assay: Drug inhibition of trogocytosis in MLR (frequency of cross-dressed CD11c+ APC by flow cytometry); assay type: cell-based, mice
# Protocol: The frequency of cross-dressed CD11c+ APC on day 6 of MLR was assessed by flow cytometry.
# Whether drugs can inhibit cross-dressed APCs from facilitating antigen presentation to donor T cells and prevent GVHD following allo-HSCT was tested. Cross-dressed donor CD11c+ APCs were generated in vivo following allo-HSCT (FIG. 1).
# [3] = tested on: T cells; assay: T cell proliferation in primary MLR with drug-treated bone marrow; assay type: cell-based, mice
Molecule,cell viability / direct cytotoxic effects [1],cell viability / direct cytotoxic effects ([1]; listed as VIP antagonist),"exchange of plasma membrane fragments (trogocytosis; frequency of cross-dressed CD11c+ APC) ([2]; in vitro generated cross-dressed CD11c+ cells, day 6 of MLR, flow cytometry (FIG. 3))",semi-direct presentation of allo-antigen to T cells ([2]; summary statement of the data),"T cell proliferation in primary MLR ([3]; bone marrow treated with 0.05 uM, compared to non-drug treated bone marrow)",allo-reactivity ([3]; summary statement of the data)
KPRRPYTDNYTRLRKQMAVKKYLNSILN-NH2 [VIPHyb],without direct cytotoxic effects,preserving cell viability,,,,
CC(=O)O[C@H]1C(=O)[C@@]2(C)[C@H]([C@H](OC(=O)c3ccccc3)[C@]3(O)C[C@H](OC(=O)[C@H](O)[C@@H](NC(=O)c4ccccc4)c4ccccc4)C(C)=C1C3(C)C)[C@]1(OC(C)=O)CO[C@@H]1C[C@@H]2O [paclitaxel],without direct cytotoxic effects; also recorded: preserving cell viability,,inhibited,reduce semi-direct presentation,significantly decreased,reduce allo-reactivity
